Results on two compounds are retold here after patent publication US4837224A, “(R)-alpha-ethyl-2-oxo-1-pyrrolidineacetamide compositions” (UCB Societe Anonyme, priority 1984, dated 1989).

The LD50 is the dose at which mortality reaches 50%. Low readings indicate greater toxicity, high ones lower toxicity.

The subject of data set [1] is amnesia-inducing effect of an electric shock. Kind of data set: Mnemic activity: antagonism of the amnesia-inducing effect of an electric shock. It is filed as in vivo, rat (female Wistar). To be noted: for minimal effective dose: sc, rat, subcutaneous, 5 minutes after the end of the learning session, retention measured 24 hours after the learning session, read-out: Active dose (minimum active dose reestablishing a normal threshold of between 8 to 11 graduations); for mnemic activity relative to the racemate: times more active than the racemate (compound A). The text has this:
The principle of the test is as follows:
The reaction of withdrawal of a rat's paw when subjected to an increasing and measured pressure is observed. The pressure at which the withdrawal reaction takes place is referred to as the "reaction threshold". This threshold is expressed by the number of graduations read diectly from the scale of the apparatus used (analgesia-meter UGO BASILE Milan) and thus corresponds to the minimum pressure which, applied to the paw of the animals, causes the paw to be withdrawn (learning session). Three measurements are carried out at intervals of 30 minutes.
When tested 24 hours after the end of the learning session, control animal show a natural retention of the previous test, which corresponds to a threshold of the order of 8 to 11 graduations.
The amnesia-inducing effect is produced by applying a trans-temporal supramaximal electric shock (100 mA, 120 Volts, 0.2 sec.) to the rats 15 minute after the end of the learning session. This amnesia-inducing effect due to the electric shock induces, when measuring the retention 24 hours later, an increase of the avoidance threshold which now corresponds to that of naive animals (which have not undergone a learning session), that is to say a threshold of between 14 and 19 graduations.
For each compound to be tested the minimum active dose (in mg/kg) reestablishing a normal threshold of between 8 to 11 graduations 24 hours after the learning session in animals subjected to electric shock is determined.
The compounds to be tested are administered subcutaneously, as a 10% solution or suspension, to groups of 10 rats (female Wistar rats weighing 150 g) 5 minutes after the end of the learning session. At the same time, a control group of 10 rats is given only a 0.9% aqueous sodium chloride solution.

The subject of another data set is male mouse. Kind of data set: Toxicity: LD 50 after intravenous administration in the male mouse. It is filed as in vivo. An excerpt: (§1) The following table gives, for compounds A and B, the LD 50 in mg/kg determined on the male mouse and the male rat after intravenous administration
Assay in data set [2]: as above
In kind it is in vivo. To be noted: in vivo; male mouse, intravenous.
Excerpt: as §1

A short description of data set [3]: Toxicity: LD 50 after intravenous administration in the male rat. To be noted: in vivo.
Excerpt: as §1

With `CCC(C(N)=O)N1CCCC1=O` (racemic) [compound A, alpha-ethyl-2-oxo-1-pyrrolidineacetamide], the minimal effective dose in data set [1] came to 1.7 mg/kg.
On to `CC[C@H](C(N)=O)N1CCCC1=O` [compound B, (R)-alpha-ethyl-2-oxo-1-pyrrolidineacetamide], for which, in data set [1], the minimal effective dose is 0.17 mg/kg. The results for the “mnemic activity relative to the racemate” value in data set [1] and in data set [1] (listed as dextrorotatory enantiomer of alpha-ethyl-2-oxo-1-pyrrolidineacetamide) were 10 times and “about 10 times”, respectively. Moreover, in the data set with male mouse (times lower toxicity than the racemic form, based on LD 50 in mouse and rat), the “toxicity relative to the racemate” value was found to be 3 times. For the same compound, the “toxicity relative to the racemate (in words)” value in the data set with male mouse (versus racemate (product A), LD 50 mouse and rat, intravenous) is given as “three times less toxic”. The figures for the LD50 in data set [2] and in data set [3] were 5600 mg/kg and 5000 mg/kg, respectively.
